Results from US20230159453A1 (COCRYSTAL PHARMA, INC., priority 2020, published 2023).

Target: SARS2 protease (Severe acute respiratory syndrome coronavirus 2, UniProt P0DTD1)
Assay: SARS-CoV-2 protease inhibition assay (SARS2 FRET protease assay)
Assay type: biochemical
Settings: SARS-CoV-2 protease 25 nM, FRET, peptide substrate 1.3 μM, 30 minutes at 30° C., compounds 20 μM to 1.0 nM; read-out: IC50

SMILES	IC50 [nM]
CC(C)C[C@H](NC(=O)OC1CCCC1Cc1ccccc1)C(=O)N[C@@H](C[C@@H]1CCNC1=O)C(=O)C(N)=O (stereo partly drawn) [Compound C240, 2-Benzylcyclopentyl ((S)-1-(((S)-4-amino-3,4-dioxo-1-((S)-2-oxopyrrolidin-3-yl)butan-2-yl)amino)-4-methyl-1-oxopentan-2-yl)carbamate]	230
O=C(N[C@@H](CC1CCCCC1)C(=O)N[C@@H](C[C@@H]1CCNC1=O)C(=O)C(=O)NC1CC1)OC(Cc1cccc(Cl)c1)c1cccc(Cl)c1 (stereo partly drawn) [Compound C241, 1,2-Bis(3-chlorophenyl)ethyl ((S)-3-cyclohexyl-1-(((S)-4-(cyclopropylamino)-3,4-dioxo-1-((S)-2-oxopyrrolidin-3-yl)butan-2-yl)amino)-1-oxopropan-2-yl)carbamate]	2350
CC(C)C[C@H](NC(=O)OC(Cc1cccc(Cl)c1)c1cccc(Cl)c1)C(=O)N[C@@H](C[C@@H]1CCNC1=O)C(=O)C(=O)NC1CC1 (stereo partly drawn) [Compound C242, 1,2-Bis(3-chlorophenyl)ethyl ((S)-1-(((S)-4-(cyclopropylamino)-3,4-dioxo-1-((S)-2-oxopyrrolidin-3-yl)butan-2-yl)amino)-4-methyl-1-oxopentan-2-yl)carbamate]	74
CC(C)C[C@H](NC(=O)OC(Cc1cccc(Cl)c1)c1ccccc1)C(=O)N[C@@H](C[C@@H]1CCNC1=O)C(=O)C(=O)N1CCCCC1 (stereo partly drawn) [Compound C243, 2-(3-Chlorophenyl)-1-phenylethyl ((S)-1-(((S)-3,4-dioxo-1-((S)-2-oxopyrrolidin-3-yl)-4-(piperidin-1-yl)butan-2-yl)amino)-4-methyl-1-oxopentan-2-yl) carbamate]	> 20000
CC1(C)CC(CC(NC(=O)[C@H](CC2CCCCC2)NC(=O)OCc2cccc(Cl)c2)C(=O)C(=O)NC2CC2)C(=O)N1 (stereo partly drawn) [Compound C244, 3-Chlorobenzyl ((2S)-3-cyclohexyl-1-((4-(cyclopropylamino)-1-(5,5-dimethyl-2-oxopyrrolidin-3-yl)-3,4-dioxobutan-2-yl)amino)-1-oxopropan-2-yl) carbamate]	1730
CC1(C)CC(CC(NC(=O)[C@H](CC2CCCCC2)NC(=O)OC(c2ccc(Cl)cc2)C(C)(C)c2cccc(Cl)c2)C(=O)C(=O)NC2CC2)C(=O)N1 (stereo partly drawn) [Compound C245]	1980
CC(C)C[C@H](NC(=O)OC(c1ccc(Cl)cc1)C(C)(C)c1cccc(Cl)c1)C(=O)N[C@H](C=O)C[C@@H]1CCNC1=O (stereo partly drawn) [Compound C246]	520
CC(C)C[C@H](NC(=O)OC(c1ccc(F)cc1)C(C)(C)c1cccc(Cl)c1)C(=O)N[C@@H](C[C@@H]1CCNC1=O)C(=O)C(=O)NC1CC1 (stereo partly drawn) [Compound C247]	80
CC(C)C[C@H](NC(=O)OC(c1ccccc1)C(C)(C)c1cccc(Cl)c1)C(=O)N[C@@H](C[C@@H]1CCNC1=O)C(=O)C(=O)N1CCN(C)CC1 (stereo partly drawn) [Compound C248]	6930
CC(C)C[C@H](NC(=O)OC(Cc1cccc(Cl)c1)c1ccccc1)C(=O)N[C@@H](C[C@@H]1CCNC1=O)C(=O)NS(=O)(=O)C1CC1 (stereo partly drawn) [Compound C249]	> 20000
O=C[C@H](C[C@@H]1CCNC1=O)NC(=O)[C@H](CC1CCCCC1)NC(=O)OC(c1cccc(Cl)c1)C1(c2cccc(Cl)c2)CC1 (stereo partly drawn) [Compound C250, (3-Chlorophenyl)(1-(3-chlorophenyl)cyclopropyl)methyl ((S)-3-cyclohexyl-1-oxo-1-(((S)-1-oxo-3-((S)-2-oxopyrrolidin-3-yl)propan-2-yl)amino)propan-2-yl)carbamate]	10
CC(C)C[C@H](NC(=O)OC(c1ccccc1)C(F)(F)c1cccc(Cl)c1)C(=O)N[C@@H](C[C@@H]1CCNC1=O)C(=O)C(N)=O (stereo partly drawn) [Compound C251]	0.008
CC(C)(c1cccc(Cl)c1)C(OC(=O)N[C@@H](Cc1ccccc1)C(=O)N[C@@H](C[C@@H]1CCNC1=O)C(=O)C(N)=O)c1ccccc1 (stereo partly drawn) [Compound C254]	4270
NC(=O)C(=O)[C@H](C[C@@H]1CCNC1=O)NC(=O)[C@H](Cc1ccccc1)NC(=O)OC(CCc1ccccc1)c1ccccc1 (stereo partly drawn) [Compound C255]	70
CC(C)C[C@H](NC(=O)OCCCc1ccccc1)C(=O)N[C@@H](C[C@@H]1CCNC1=O)C(=O)C(N)=O [Compound C256]	320
CC(C)(c1cccc(Cl)c1)C(OC(=O)N[C@@H](Cc1ccccc1)C(=O)N[C@H](C=O)C[C@@H]1CCNC1=O)c1ccccc1 (stereo partly drawn) [Compound C257]	> 20000
CC(C)C[C@H](NC(=O)OC(c1ccccc1)C(F)(F)c1cccc(Cl)c1)C(=O)N[C@@H](C[C@@H]1CCNC1=O)C(=O)C(=O)NC1CC1 (stereo partly drawn) [Compound C258]	90
CC(C)C[C@H](NC(=O)OC(CCc1ccccc1)c1ccccc1)C(=O)N[C@H](C=O)C[C@@H]1CCNC1=O (stereo partly drawn) [Compound C259]	50
CC(C)C[C@H](NC(=O)OC(c1ccccc1)C(C)(C)c1cccc(Cl)c1)C(=O)N[C@@H](C[C@@H]1CCNC1=O)C(=O)C(=O)NCCN(C)C (stereo partly drawn) [Compound C260]	1140
CC(C)C[C@H](NC(=O)OC(c1ccccc1)C(C)(C)c1cccc(Cl)c1)C(=O)N[C@@H](C[C@@H]1CCNC1=O)C(=O)C(=O)N1CCN(C(=O)OC(C)(C)C)CC1 (stereo partly drawn) [Compound C261]	17000
O=C[C@H](C[C@@H]1CCNC1=O)NC(=O)[C@H](CC1CCCCC1)NC(=O)O[C@@H]1CCC[C@H]1Cc1cccc(Cl)c1 [Compound C262]	20
O=C(N[C@@H](CC1CCCCC1)C(=O)N[C@@H](C[C@@H]1CCNC1=O)C(=O)C(=O)NC1CC1)O[C@H]1CCC[C@@H]1Cc1cccc(Cl)c1 [Compound C264]	680
O=C(N[C@@H](CC1CCCCC1)C(=O)N[C@@H](C[C@@H]1CCNC1=O)C(=O)C(=O)NC1CC1)O[C@@H]1CCC[C@@H]1Cc1cccc(Cl)c1 [Compound C265]	840

SMILES	IC50 [nM]
CC(C)C[C@H](NC(=O)OC(c1cccc(Cl)c1)C(F)(F)c1cccc(Cl)c1)C(=O)N[C@H](C=O)C[C@@H]1CCNC1=O (stereo partly drawn) [Compound C266]	20
CCCCC[C@H](NC(=O)OC(c1ccccc1)C(C)(C)c1cccc(Cl)c1)C(=O)N[C@H](C=O)C[C@@H]1CCNC1=O (stereo partly drawn) [Compound C267]	100
CC(C)C[C@H](NC(=O)O[C@@H](c1cccc(F)c1)C(C)(C)c1cccc(Cl)c1)C(=O)N[C@H](C=O)C[C@@H]1CCNC1=O [Compound C268]	20
CC(C)C[C@H](NC(=O)O[C@H](c1cccc(F)c1)C(C)(C)c1cccc(Cl)c1)C(=O)N[C@H](C=O)C[C@@H]1CCNC1=O [Compound C269]	70
CC(C)C[C@H](NC(=O)OC(c1ccccc1)C(C)(C)c1cccc(Cl)c1)C(=O)N[C@@H](C[C@@H]1CCNC1=O)C(=O)C(=O)N1CCCCC1 (stereo partly drawn) [Compound C270]	4410
CCOCCNC(=O)C(=O)[C@H](C[C@@H]1CCNC1=O)NC(=O)[C@H](CC1CCCCC1)NC(=O)OC(c1ccccc1)C(C)(C)c1cccc(Cl)c1 (stereo partly drawn) [Compound C271]	2000
O=C[C@H](C[C@@H]1CCNC1=O)NC(=O)[C@H](CC1CCCCC1)NC(=O)OC(Cc1cccc(Cl)c1)c1cccc(Cl)c1 (stereo partly drawn) [Compound C272, 1,2-Bis(3-chlorophenyl)ethyl ((S)-3-cyclohexyl-1-oxo-1-(((S)-1-oxo-3-((S)-2-oxopyrrolidin-3-yl)propan-2-yl)amino)propan-2-yl)carbamate]	320
CC(C)(c1cccc(Cl)c1)C(OC(=O)N[C@@H](CC1CCCCC1)C(=O)N[C@@H](C[C@@H]1CCNC1=O)C(=O)CO)c1ccccc1 (stereo partly drawn) [Compound C273]	5350
CC(C)C[C@H](NC(=O)OC(c1ccccc1)C(C)(C)c1cccc(Cl)c1)C(=O)N[C@@H](C[C@@H]1CCNC1=O)C(=O)C(=O)N1CCNCC1 (stereo partly drawn) [Compound C274]	12000
CC(C)C[C@H](NC(=O)O[C@@H](c1ccccc1)C(C)(C)c1cccc(Cl)c1)C(=O)N[C@H](C=O)C[C@@H]1CCNC1=O [Compound C275]	20
CC(C)C[C@H](NC(=O)O[C@H](c1ccccc1)C(C)(C)c1cccc(Cl)c1)C(=O)N[C@H](C=O)C[C@@H]1CCNC1=O [Compound C276]	60
CC(C)C[C@H](NC(=O)OC(c1ccccc1)C1(c2cccc(Cl)c2)CCC1)C(=O)N[C@H](C=O)C[C@@H]1CCNC1=O (stereo partly drawn) [Compound C277]	710
CC(C)C[C@H](NC(=O)OC(c1ccccc1)C1(c2cccc(Cl)c2)CCCC1)C(=O)N[C@H](C=O)C[C@@H]1CCNC1=O (stereo partly drawn) [Compound C278]	20
CC(C)C[C@H](NC(=O)OC(c1ccccc1)C(F)(F)c1cccc(Cl)c1)C(=O)N[C@@H](C[C@@H]1CCNC1=O)C(=O)CO (stereo partly drawn) [Compound C279]	6590
CC(C)C[C@H](NC(=O)OC(Cc1ccccc1)c1ccccc1)C(=O)N[C@@H](C[C@@H]1CCNC1=O)C(=O)C(=O)N1CCN(C(=O)OC(C)(C)C)CC1 (stereo partly drawn) [Compound C280]	> 20000
CC1(C)CC(CC(NC(=O)[C@H](CC2CCCCC2)NC(=O)OC(c2cccc(Cl)c2)C(C)(C)c2cccc(Cl)c2)C(=O)C(=O)NC2CC2)C(=O)N1 (stereo partly drawn) [Compound C281]	2480
CC(C)C[C@H](NC(=O)OC(Cc1cccc(Cl)c1)c1cccc(Cl)c1)C(=O)N[C@H](C=O)C[C@@H]1CCNC1=O (stereo partly drawn) [Compound C282, 1,2-Bis(3-chlorophenyl)ethyl ((S)-4-methyl-1-oxo-1-(((S)-1-oxo-3-((S)-2-oxopyrrolidin-3-yl)propan-2-yl)amino)pentan-2-yl)carbamate]	40
CC(C)C[C@H](NC(=O)OC(Cc1ccccc1)c1ccccc1)C(=O)N[C@@H](C[C@@H]1CCNC1=O)C(=O)C(=O)N1CCNCC1 (stereo partly drawn) [Compound C283]	> 20000
CC(C)(c1cccc(Cl)c1)C(OC(=O)N[C@@H](Cc1ccccc1)C(=O)N[C@@H](C[C@@H]1CCNC1=O)C(=O)C(=O)NC1CC1)c1ccccc1 (stereo partly drawn) [Compound C284]	1570
CC(C)C[C@H](NC(=O)O[C@@H](c1cccc(F)c1)C(C)(C)c1cccc(Cl)c1)C(=O)N[C@@H](C[C@@H]1CCNC1=O)C(=O)C(=O)NC1CC1 [Compound C285]	80
CC(C)C[C@H](NC(=O)OC(c1cccc(Cl)c1)C(C)(C)c1cccc(Cl)c1)C(=O)N[C@@H](C[C@@H]1CCNC1=O)C(=O)C(=O)NC1CC1 (stereo partly drawn) [Compound C286]	70
CCN1CCN(C(=O)C(=O)[C@H](C[C@@H]2CCNC2=O)NC(=O)[C@H](CC(C)C)NC(=O)OC(c2ccccc2)C(C)(C)c2cccc(Cl)c2)CC1 (stereo partly drawn) [Compound C287]	> 20000
